These results are taken from patent publication US8748480B2, “Methods for treating opioid tolerance” (priority 2005, dated 2014).

For orientation: IC50 means the midpoint of a concentration-inhibition curve.

Read-outs that look alike come from different tables or passages of the source. No end group written: not given here.

The target of assay [1] is T1, Fαi1·b-Gβ1γ2 heterotrimer (Rattus norvegicus, UniProt P54311).
T1 construct: made in house; host or cells: Sf9 insect cells (baculovirus) for b-Gβ1γ2
Put plainly: Flow cytometry dissociation of Fαi1 from preformed heterotrimer with b-Gβ1γ2. It counts as binding. As to conditions: peptide added to preformed Fαi1·b-Gβ1γ2. Here is the method:
(§1) Fluorescein-labeled Gαi1 (Fαi1) was prepared in accordance with standard methods (Sarvazyan, et al. (1998) supra). Assays were used to determine peptide effects on Gα-Gβγ interactions included competition and dissociation assays (Ghosh, et al. (2003) supra). Briefly, for competition-based assays, 100 pM Fαi1 and indicated concentrations of peptides were added to 50 pM b-Gβ1γ2 immobilized on 10^5 beads per mL and incubated at room temperature for 30 minutes to reach equilibrium. The bead-associated fluorescence was then recorded in a BD Biosciences FACSCALIBUR™ flow cytometer. Data was corrected for background fluorescence and fit with a sigmoid dose response curve using Graph Pad Prism 4. To measure dissociation of Fαi1 from b-Gβ1γ2, 100 pM of Fαi1 was incubated with 50 pM immobilized b-Gβ1γ2 at room temperature for 15-20 minutes. The fluorescence of bound Fαi1 subunit was measured, followed by the addition of a 200-fold excess of unlabeled Gαi1 or peptides and the amount of Fαi1 remaining bound to the beads was measured at the indicated times.

Assay [2] deals with voltage-gated N-type Ca++ channel. As to conditions: cited from earlier work.
In another assay the test system is PLC β2. As to conditions: cited from earlier work.
A further assay deals with type I adenylyl cyclase. As to conditions: cited from earlier work.
A further assay deals with PI3K. As to conditions: cited from earlier work.
The subject of a further assay is PLC β. Put plainly: Phospholipase C-Gβγ interaction, PLC enzymatic activity (FIG. 3). Conditions: in vitro. The assay is classed as biochemical. As for the experimental part: FIG. 3 is a graph illustrating the inhibition of phospholipase C-Gβγ interactions by NSC119910. Phospholipase enzymatic activity was determined using well-established methods (Ghosh and Smrcka (2003) Meth. Mol. Biol. 237:67-75).

Assay [3] concerns fMLP-dependent ERK activation. Put plainly: fMLP-dependent ERK activation. The assay is classed as cell-based.
The test system of assay [4] is differentiated HL-60 neutrophil. Put plainly: Cytosolic Ca2+ in agonist-activated neutrophils (fura-2). It counts as cell-based. As for the experimental part:
FIG. 4 is a bar graph depicting the peak cytosolic Ca^2+ concentrations for neutrophils activated with fMLP or ATP agonists in the presence or absence of 10 μM NSC119910. fMLP, n=3; ATP, n=2.
Gβγ-regulated activities of PI3Kγ and PLC-β2/-β3 are important in chemoattractant-induced responses and inflammation. PI3Kγ is involved in the production of TI-IgλL and mice deficient in PI3Kγ, lack neutrophil migration (Li, et al, (2000) Science 287:1046-9). The PLC pathway is involved in down-modulation of chemotaxis and in hyperinflammatory conditions (Li, et al. (2000) supra). Therefore, it was determined whether NSC119910 could inhibit the Gβγ/PLC interaction and block PLC activation.
Ca^2+ fluxes were measured using two 35 mL cultures of differentiated HL-60 neutrophil cultures (0.2×10^6 cells/mL). Cells were cultured for three days with in DMSO (1.2%), washed in HSS and resuspended in 2 mL HBSS at a concentration of 7×10^6 cells/mL. Addition of DMSO to the growth medium induces differentiation of these cells into morphologically and functionally mature neutrophils (Collins, et al. (1978) Proc. Natl. Acad. Sci. USA 75:2458; Collins, et al., (1979) J. Exp. Med. 149:969). Neutrophils were preloaded with fura-2 (1 μM), a fluorescent Ca^2+-sensitive indicator (Suh, et al., (1996) J. Biol. Chem. 271:32753), for 45 minutes, washed with HBSS and resuspended in 2 mL of indicator-free HBSS. An 140 μL aliquote of cells was added to a total of 2 mL HBSS. Fluorescence ratios were taken by dual excitation at 340 and 380 nm and emission at 510 nm. After a stable baseline was established, either DMSO or NSC119910 was added and incubated for 5 minutes. Subsequently, either fMLP or ATP agonists were added to activate release of Ca^2+ from intracellular stores.

Another assay concerns Mice. Put plainly: 55° C. warm-water tail-flick test, intracerebroventricular injection. The assay is classed as in vivo. As to conditions: 100 nmol NSC119910 i.c.v. with morphine. As for the experimental part: Opioid receptors, μ, Δ, and κ, couple to Gi and Go proteins through α and βγ subunits, and regulate a number of signaling pathways. […] Mice were tested 20 minutes after the injection for an analgesic response in a 55° C. warm-water tail-flick test (Wells, et al. (2001) J. Pharmacol. Exp. Therapeut. 297:597-605).
A general note: Thermal pain tests record how soon the animal reacts.

Assay [5] addresses T2, Gβγ (protein interaction site of Gβ) (Rattus norvegicus, UniProt P54311).
T2 construct: made in house; host or cells: Sf9 insect cells (baculovirus), co-expressed with BirA and (His)6-Gαi1
Put plainly: Phage ELISA: small molecules competing with SIGK-phage binding to immobilized biotinylated Gβγ. Here is the method:
Exemplary compounds of the present invention were initially selected from a computational screen to identify ligands that bind to the novel protein interaction site of Gβ. The computational screen involved using SYBYL molecular modeling software to model the protein interaction site of Gβ as determined in the X-ray structure disclosed herein. The computational docking screen was performed with the National Cancer Institute 1900 compound library wherein the compounds were tested for docking to the protein interaction site of Gβ using FLEXX™ (Tripos, Inc., St. Louis, Mo.) for docking and CSCORE™ (Tripos, Inc.) to evaluate the energetics and fitness of the docked structure. Algorithm-dependent lists of compounds, predicted to interact with the protein interaction site of Gβ and the structural model of the interaction, were generated. Selected compounds were subsequently analyzed in the phage ELISA binding assay disclosed herein to assess whether these compounds could bind to the protein interaction site of Gβ and interfere with protein interactions at this surface.
Wild-type Gβ1 and Gβ1 mutants were made in the baculovirus vector PDW464 which encodes a biotinylation site at a lysine upstream of the amino terminus of Gβ1 (Goubaeva, et al. (2003) supra). Mutants were generated by overlap extension PCR using standard protocols. The wild-type and mutant Gβ1 constructs consisted of a 20 amino acid biotin acceptor peptide (BAP) sequence fused in-frame with the amino-terminus of rat Gβ1 subunit. When coexpressed with biotin holoenzyme synthetase (BirA) in Sf9 cells, the Gβ1 subunit becomes covalently biotinylated in vivo at the Specific lysine acceptor residue in the BAP.
Phage ELISA assays used to assess peptide binding to wild-type and mutant b-βγ were performed according to standard methods (Smrcka and Scott (2002) Methods Enzymol. 344:557-76). Briefly, 1 μg streptavidin was immobilized in the well of a […] overnight at 4° C. The wells were blocked with 100 μL of 2% bovine serum albumin (BSA) in Tris-buffered saline (TBS) for 1 hour at 4° C. followed by three washes of 1×TBS/0.5% TWEEN®. […] The wells were washed, followed by the addition of 1×10^6 to 1×10^10 phage particles and incubated at 4° C. for 3 hours. The wells were then washed six times with TBS/0.5% TWEEN® followed by addition of 40 μL of 1:5000 dilution of anti-M13 antibody (Pharmacia, Uppsala, Sweden) and incubated at room temperature for 1 hour. The wells were washed, followed by the addition of 40 μL of (2,2′-Azino-bis(3-ethylbenzthiazoline)-6-sulfonic acid (ABTS) and the colorimetric reaction was monitored at 405 nm. Non-specific binding was subtracted for each reading.
A phage ELISA assay was used to determine whether small molecules identified in the computational screen could interact with the Gβγ protein interaction surface. […] The screen was based on a reduction in the optical density (OD) of wells containing Gβγ subunits and phage. […] Three background wells contained no βγ subunits.
As disclosed herein, biotinylated Gβγ subunits were immobilized on the surface of a 96-well plate coated with streptavidin, phage displaying Gβγ-binding peptides were subsequently added and binding in the presence and absence of test compounds detected with an anti-phage antibody.
On the technique in general: An ELISA detects its analyte on a solid surface through an enzyme-linked reagent.

Another assay has as its target Gβγ subunits (Rattus norvegicus, UniProt P54311). Put plainly: Gα subunit-Gβγ interaction (FIG. 2). It counts as binding. Here is the method: FIG. 2 is a graph illustrating that NSC119910 binds to Gβγ and interferes with physiologically relevant protein interactions such as with the Gα subunit.
as §1

The next assay relates to PLC-β2. Put plainly: Purified PLC-β2 activation by purified βγ (FIG. 6). The assay is classed as biochemical. Conditions: purified PLC-β2 with purified βγ. As for the experimental part:
(§2) FIG. 6 is a bar graph illustrating inhibition of PLC-β2 and PLC-β3 activation in the presence of exemplary compounds of the instant invention.
(§3) The ability of NSC119910 analogs to selectively modulate activation PLC-β2 and -β3 was analyzed. In this assay, PLC-β2 and PLC-β3 were purified and PLC enzymatic activity was measured in the presence or absence of purified βγ and in the presence or absence of analog.

A further assay deals with PLC-β3. Put plainly: Purified PLC-β3 activation by purified βγ (FIG. 6). It counts as biochemical. Conditions: purified PLC-β3 with purified βγ. Here is the method: as §2, §3

As for `CC[C@H](C)[C@H](NC(=O)[C@H](CC(N)=O)NC(=O)[C@H](CC(C)C)NC(=O)[C@H](C)NC(=O)[C@H](CCCCN)NC(=O)[C@H](CCCNC(=N)N)NC(=O)[C@@H](NC(=O)[C@@H](N)CO)[C@@H](C)CC)C(=O)N[C@@H](CC(C)C)C(=O)NCC(=O)N[C@@H](Cc1ccc(O)cc1)C(=O)N1CCC[C@H]1C(=O)N[C@@H](CC(=O)O)C(=O)N[C@@H](Cc1ccc(O)cc1)C(=O)N[C@@H](CC(=O)O)C(=O)O` [SIRK], the “dissociation of a preformed heterotrimer” value in [1] is listed as “promotes dissociation”. For the same compound, the “Gβ1γ2 regulation of voltage-gated N-type Ca++ channel activity” value in assay [2] is “little or no effect”. Moreover, in the assay with PLC β2 (read-out: IC50 for inhibition of PLC β2 activation by Gβ1γ2), the IC50 is 5 µM. For the same compound, the “Gβ1γ2 regulation of type I adenylyl cyclase” value in the assay on type I adenylyl cyclase is “little or no effect”. Moreover, the “activation of PI3K” value in the assay with PI3K was “blocked”.

As for `O=C(O)C1CCCCC1c1c2ccc(=O)c(O)c-2oc2c(O)c(O)ccc12` (stereo not shown) [NSC119910], the “PLC β-Gβγ interaction, enzymatic activity of PLC β” value in the assay with PLC β was “inhibited”. In addition, the “fMLP-dependent ERK activation” value in assay [3] was “without interfering”. Further, the “Ca2+ mobilization” value in [4] was “block”. Besides, the “time taken for fluorescence to decline to half-peak values” in assay [4] (10 μM compound, fMLP or ATP (FIG. 5)) is given as “not substantially affected”. In addition, the “increase in [Ca2+]” value in [4] (ATP-stimulated neutrophils, 10 μM compound) is listed as “not significantly suppressed”. Besides, the “increase in cytosolic Ca2+” value in assay [4] (fMLP-stimulated neutrophils, 10 μM compound) is given as “suppressed”. The “shift to the left in morphine dose-response curve” value in the assay with Mice is on record as 11 fold. The IC50 in assay [5] is 0.1 µM. Further, the “interactions of Gα subunit with Gβγ subunits” value at Gβγ subunits is listed as “blocked”.

Take SIRKALNILAYPDYD [SIRK(Gly10Ala)]: the “dissociation of a preformed heterotrimer” value in [1] is reported as “could still accelerate heterotrimer dissociation”. In addition, the “change of IC50 relative to wild-type SIRK peptide” value in the assay with PLC β2 (inhibition of PLC β2 activation by Gβ1γ2) is reported as 12 fold.

Regarding `O=C(O)c1cccc2cccc(-c3c4ccc(=O)c(O)c-4oc4c(O)c(O)ccc34)c12` [NSC119893], the “fMLP-dependent ERK activation” value in [3] is “without interfering”. Also, in [4], the “Ca2+ mobilization” value is “block”.

As for `C[C@H](NC(=O)[C@H](CS)NC(=O)[C@@H](N)CO)C(=O)N[C@@H](CCCNC(=N)N)C(=O)N[C@@H](Cc1ccccc1)C(=O)N[C@@H](Cc1ccccc1)C(=O)NCC(=O)N[C@H](C(=O)N1CCC[C@H]1C(=O)NCC(=O)N[C@@H](CS)C(=O)N[C@H](C(=O)O)[C@@H](C)O)[C@@H](C)O` [SCAR], the “dissociation of a preformed heterotrimer” value in assay [1] is on record as “could not promote dissociation”.

For `CC[C@H](C)[C@H](NC(=O)[C@H](CC(N)=O)NC(=O)[C@H](CC(C)C)NC(=O)[C@H](C)NC(=O)[C@H](C)NC(=O)[C@H](CCCNC(=N)N)NC(=O)[C@@H](NC(=O)[C@@H](N)CO)[C@@H](C)CC)C(=O)N[C@@H](CC(C)C)C(=O)NCC(=O)N[C@@H](Cc1ccc(O)cc1)C(=O)N1CCC[C@H]1C(=O)N[C@@H](CC(=O)O)C(=O)N[C@@H](Cc1ccc(O)cc1)C(=O)N[C@@H](CC(=O)O)C(=O)O` [SIRK(Lys4Ala)], the “dissociation of a preformed heterotrimer” value in assay [1] is “failed to accelerate heterotrimer dissociation”.

Take `O=C(O)/C=C/c1c2ccc(=O)c(O)c-2oc2c(O)c(O)ccc12` [NSC119911]: the “fMLP-dependent ERK activation” value in assay [3] was “do not interfere”. Besides, in the assay with PLC-β2, the PLC-β2 activation result is listed as “block PLC-β2 activation more effectively than PLC-β3 activation”.

With `N[C@H]1CCc2cc(O)c(O)c(O)c2-c2ccc(O)c(=O)cc21` [NSC201400], the “fMLP-dependent ERK activation” value in assay [3] was “do not interfere”. The PLC-β3 activation result in the assay on PLC-β3 is on record as “selectively potentiated”. In addition, in assay [5] (read-out: IC50), the IC50 stood at 0.1 µM.
